Reference: patent publication US20220347171A1, “TREATMENT OF PRURIGO NODULARIS” (TREVI THERAPEUTICS, INC., priority 2016, published 2022)
Counter-ions that a name gives are not always drawn.

Test system: prurigo nodularis patients
Assay: TR03ext (Example 3): Prurigo Activity Score (PAS) healed lesions; Stage 0 100% healed, Stage 1 75%-99%, Stage 2 50%-74%, Stage 3 25%-49%, Stage 4 0-24% healed
Assay type: in vivo, human
From the text: In some embodiments, after the treatment the patient experiences a substantial reduction of itch that is characterized by at least one category/stage improvement in Prurigo Activity Score (PAS). In particular embodiments, after the treatment the patient experiences a reduction of itch that results in at least one category/stage improvement in Prurigo Activity Score (PAS) domains of number of prurigo lesions, prurigo lesions with excoriations/crusts and/or healed prurigo lesions. The PAS consists of 7 qualitative and quantitative measurements related to the examination of the skin. Type, number, distribution, affected body parts, and quantitative number of lesions in a representative body part are documented. The biggest lesion and the most representative lesion are monitored with documentation of height and area measurements. Prurigo lesion activity is recorded as a percentages based on their stage (0-4). In some embodiments, number measurements of lesions on the body have four numerical categories: 0, 1-19, 20-100 and >100. In some embodiments, prurigo lesions with excoriations/crusts have five categories: Stage 4 (76%-100%), Stage 3 (51%-75%), Stage 2 (26%-50%), Stage 1 (1-25%) and Stage 0 (0%). In some embodiments, healed prurigo lesions have five categories: Stage 4 (0-24%), Stage 3 (25-49%), Stage 2 (50-74%), Stage 1 (75%-99%), Stage 0 (100%).
This clinical study was a Phase 2 Open Label Extension Study (clinical study TR03ext) of the randomized, double-blind, 3-parallel arm, placebo controlled dose ranging study described in Example 2. All those subjects who were randomized, and then completed Example 2 study, were eligible to participate in the Extension Study.
The primary endpoint was a description of the overall incidence and nature of Treatment-Emergent AEs (TEAES) during weeks 5-50 of the study. Exploratory efficacy endpoints included Change from Baseline patient reported outcome measures of Worst itch NRS, itchy VRS and ItchyQoL, by Treatment Period study visit and Baseline NRS score. There was also an assessment of any potential skin lesion changes over time using the metrics of the PAS.
Patients in Extension Study were titrated over a dose range of 30 mg QD to 180 mg BID based on tolerability. The selected dose range was based on Example 2 study whereby patients were titrated from a 30 mg QD dose either to 30 mg BID, 60 mg BID, 90 mg BID, 120 mg BID or a 180 mg BID dose. The highest dose proposed was 180 mg BID (360 mg daily dose), and was well below the highest recommended daily treatment of 160 mg IV (equivalent to 960 mg oral) for the current marketed parenteral administered product.
Tables 12, 13 and 14 display healed lesion PAS data for subjects who received treatment for at least 6 months, subjects who received treatment for at least 9 months and subjects who completed 50 weeks of treatment in the study, respectively. The status of the healed lesion activity is reported as percentages based on their stage (0-4) using a grading system: Stage 0 (100% healed); Stage 1 (75%-99% healed); Stage 2 (50%-74% healed); Stage 3 (25%-49% healed); Stage 4: 0-24% healed. Thus the higher the stage, the […] the prurigo skin pathology.

[1] = treatment for at least 6 months
[2] = treatment for at least 9 months

Oc1ccc2c3c1OC1[C@@H](O)CC[C@@]4(O)[C@@H](C2)N(CC2CCC2)CC[C@]314 (stereo partly drawn) [Nalbuphine, 17-(cyclobutylmethyl)-4,5α-epoxymorphinian-3, 6α, 14-triol, hydrochloride]
Subjects with at least one category improvement in the percentage of healed lesions (PAS) (after 6 months, 10/16): 62.5% | Subjects with at least one category improvement in the percentage of healed lesions (PAS) (after 9 months, 7/13): 53.8% | Subjects with at least one category improvement in the percentage of healed lesions (PAS) (after 12 months, 6/12): 50% | Healed lesion PAS Category Shift: Baseline Stage 0 to Last Observed Stage 0 (treatment for 50 weeks): 1 (7.7) Number (%) of Subjects | Healed lesion PAS Category Shift: Baseline Stage 0 to Last Observed Stage 1 (treatment for 50 weeks): 0 Number (%) of Subjects | Healed lesion PAS Category Shift: Baseline Stage 0 to Last Observed Stage 2 (treatment for 50 weeks): 0 Number (%) of Subjects | Healed lesion PAS Category Shift: Baseline Stage 0 to Last Observed Stage 3 (treatment for 50 weeks): 0 Number (%) of Subjects | Healed lesion PAS Category Shift: Baseline Stage 0 to Last Observed Stage 4 (treatment for 50 weeks): 0 Number (%) of Subjects | Healed lesion PAS Category Shift: Baseline Stage 1 to Last Observed Stage 0 (treatment for 50 weeks): 0 Number (%) of Subjects | Healed lesion PAS Category Shift: Baseline Stage 1 to Last Observed Stage 1 (treatment for 50 weeks): 2 (15.4) Number (%) of Subjects | Healed lesion PAS Category Shift: Baseline Stage 1 to Last Observed Stage 2 (treatment for 50 weeks): 1 (7.7) Number (%) of Subjects | Healed lesion PAS Category Shift: Baseline Stage 1 to Last Observed Stage 3 (treatment for 50 weeks): 0 Number (%) of Subjects | Healed lesion PAS Category Shift: Baseline Stage 1 to Last Observed Stage 4 (treatment for 50 weeks): 0 Number (%) of Subjects | Healed lesion PAS Category Shift: Baseline Stage 2 to Last Observed Stage 0 (treatment for 50 weeks): 0 Number (%) of Subjects | Healed lesion PAS Category Shift: Baseline Stage 2 to Last Observed Stage 1 (treatment for 50 weeks): 3 (23.1) Number (%) of Subjects | Healed lesion PAS Category Shift: Baseline Stage 2 to Last Observed Stage 2 (treatment for 50 weeks): 0 Number (%) of Subjects | Healed lesion PAS Category Shift: Baseline Stage 2 to Last Observed Stage 3 (treatment for 50 weeks): 0 Number (%) of Subjects | Healed lesion PAS Category Shift: Baseline Stage 2 to Last Observed Stage 4 (treatment for 50 weeks): 0 Number (%) of Subjects | Healed lesion PAS Category Shift: Baseline Stage 3 to Last Observed Stage 0 (treatment for 50 weeks): 0 Number (%) of Subjects | Healed lesion PAS Category Shift: Baseline Stage 3 to Last Observed Stage 1 (treatment for 50 weeks): 0 Number (%) of Subjects | Healed lesion PAS Category Shift: Baseline Stage 3 to Last Observed Stage 2 (treatment for 50 weeks): 0 Number (%) of Subjects | Healed lesion PAS Category Shift: Baseline Stage 3 to Last Observed Stage 3 (treatment for 50 weeks): 2 (15.4) Number (%) of Subjects | Healed lesion PAS Category Shift: Baseline Stage 3 to Last Observed Stage 4 (treatment for 50 weeks): 0 Number (%) of Subjects | Healed lesion PAS Category Shift: Baseline Stage 4 to Last Observed Stage 0 (treatment for 50 weeks): 1 (7.7) Number (%) of Subjects | Healed lesion PAS Category Shift: Baseline Stage 4 to Last Observed Stage 1 (treatment for 50 weeks): 0 (7.7) Number (%) of Subjects | Healed lesion PAS Category Shift: Baseline Stage 4 to Last Observed Stage 2 (treatment for 50 weeks): 1 (7.7) Number (%) of Subjects | Healed lesion PAS Category Shift: Baseline Stage 4 to Last Observed Stage 3 (treatment for 50 weeks): 1 (7.7) Number (%) of Subjects | Healed lesion PAS: Last Observed PAS Result Stage 0 (treatment for 50 weeks): 2 (15.4) Number (%) of Subjects | Healed lesion PAS: Last Observed PAS Result Stage 1 (treatment for 50 weeks): 6 (46.1) Number (%) of Subjects | Healed lesion PAS: Last Observed PAS Result Stage 2 (treatment for 50 weeks): 2 (15.4) Number (%) of Subjects | Healed lesion PAS: Last Observed PAS Result Stage 3 (treatment for 50 weeks): 3 (23.1) Number (%) of Subjects | Healed lesion PAS: Last Observed PAS Result Stage 4 (treatment for 50 weeks): 1 (7.7) Number (%) of Subjects | Healed lesion PAS Category Shift: Baseline Stage 0 to Last Observed Stage 0 [1]: 1 (5.9) Number (%) of Subjects | Healed lesion PAS Category Shift: Baseline Stage 0 to Last Observed Stage 1 [1]: 0 Number (%) of Subjects | Healed lesion PAS Category Shift: Baseline Stage 0 to Last Observed Stage 2 [1]: 0 Number (%) of Subjects | Healed lesion PAS Category Shift: Baseline Stage 0 to Last Observed Stage 3 [1]: 0 Number (%) of Subjects | Healed lesion PAS Category Shift: Baseline Stage 0 to Last Observed Stage 4 [1]: 0 Number (%) of Subjects | Healed lesion PAS Category Shift: Baseline Stage 1 to Last Observed Stage 0 [1]: 0 Number (%) of Subjects | Healed lesion PAS Category Shift: Baseline Stage 1 to Last Observed Stage 1 [1]: 2 (11.8) Number (%) of Subjects | Healed lesion PAS Category Shift: Baseline Stage 1 to Last Observed Stage 2 [1]: 1 (5.9) Number (%) of Subjects | Healed lesion PAS Category Shift: Baseline Stage 1 to Last Observed Stage 3 [1]: 0 Number (%) of Subjects | Healed lesion PAS Category Shift: Baseline Stage 1 to Last Observed Stage 4 [1]: 0 Number (%) of Subjects | Healed lesion PAS Category Shift: Baseline Stage 2 to Last Observed Stage 0 [1]: 1 (5.9) Number (%) of Subjects | Healed lesion PAS Category Shift: Baseline Stage 2 to Last Observed Stage 1 [1]: 3 (17.6) Number (%) of Subjects | Healed lesion PAS Category Shift: Baseline Stage 2 to Last Observed Stage 2 [1]: 0 Number (%) of Subjects | Healed lesion PAS Category Shift: Baseline Stage 2 to Last Observed Stage 3 [1]: 0 Number (%) of Subjects | Healed lesion PAS Category Shift: Baseline Stage 2 to Last Observed Stage 4 [1]: 0 Number (%) of Subjects | Healed lesion PAS Category Shift: Baseline Stage 3 to Last Observed Stage 0 [1]: 0 Number (%) of Subjects | Healed lesion PAS Category Shift: Baseline Stage 3 to Last Observed Stage 1 [1]: 1 (5.9) Number (%) of Subjects | Healed lesion PAS Category Shift: Baseline Stage 3 to Last Observed Stage 2 [1]: 0 Number (%) of Subjects | Healed lesion PAS Category Shift: Baseline Stage 3 to Last Observed Stage 3 [1]: 2 (11.8) Number (%) of Subjects | Healed lesion PAS Category Shift: Baseline Stage 3 to Last Observed Stage 4 [1]: 0 Number (%) of Subjects | Healed lesion PAS Category Shift: Baseline Stage 4 to Last Observed Stage 0 [1]: 1 (5.9) Number (%) of Subjects | Healed lesion PAS Category Shift: Baseline Stage 4 to Last Observed Stage 1 [1]: 2 (11.8) Number (%) of Subjects | Healed lesion PAS Category Shift: Baseline Stage 4 to Last Observed Stage 2 [1]: 1 (5.9) Number (%) of Subjects | Healed lesion PAS Category Shift: Baseline Stage 4 to Last Observed Stage 3 [1]: 1 (5.9) Number (%) of Subjects | Healed lesion PAS Category Shift: Baseline Stage 4 to Last Observed Stage 4 [1]: 1 (5.9) Number (%) of Subjects | Healed lesion PAS: Last Observed PAS Result Stage 0 [1]: 3 (17.6) Number (%) of Subjects | Healed lesion PAS: Last Observed PAS Result Stage 1 [1]: 9 (52.9) Number (%) of Subjects | Healed lesion PAS: Last Observed PAS Result Stage 2 [1]: 2 (11.8) Number (%) of Subjects | Healed lesion PAS: Last Observed PAS Result Stage 3 [1]: 3 (17.6) Number (%) of Subjects | Healed lesion PAS: Last Observed PAS Result Stage 4 [1]: 1 (5.9) Number (%) of Subjects | Healed lesion PAS Category Shift: Baseline Stage 0 to Last Observed Stage 0 [2]: 1 (7.1%) Number (%) of Subjects | Healed lesion PAS Category Shift: Baseline Stage 0 to Last Observed Stage 1 [2]: 0 Number (%) of Subjects | Healed lesion PAS Category Shift: Baseline Stage 0 to Last Observed Stage 2 [2]: 0 Number (%) of Subjects | Healed lesion PAS Category Shift: Baseline Stage 0 to Last Observed Stage 3 [2]: 0 Number (%) of Subjects | Healed lesion PAS Category Shift: Baseline Stage 0 to Last Observed Stage 4 [2]: 0 Number (%) of Subjects | Healed lesion PAS Category Shift: Baseline Stage 1 to Last Observed Stage 0 [2]: 0 Number (%) of Subjects | Healed lesion PAS Category Shift: Baseline Stage 1 to Last Observed Stage 1 [2]: 2 (14.3) Number (%) of Subjects | Healed lesion PAS Category Shift: Baseline Stage 1 to Last Observed Stage 2 [2]: 1 (7.1) Number (%) of Subjects | Healed lesion PAS Category Shift: Baseline Stage 1 to Last Observed Stage 3 [2]: 0 Number (%) of Subjects | Healed lesion PAS Category Shift: Baseline Stage 1 to Last Observed Stage 4 [2]: 0 Number (%) of Subjects | Healed lesion PAS Category Shift: Baseline Stage 2 to Last Observed Stage 0 [2]: 0 Number (%) of Subjects | Healed lesion PAS Category Shift: Baseline Stage 2 to Last Observed Stage 1 [2]: 3 (21.4) Number (%) of Subjects | Healed lesion PAS Category Shift: Baseline Stage 2 to Last Observed Stage 2 [2]: 0 Number (%) of Subjects | Healed lesion PAS Category Shift: Baseline Stage 2 to Last Observed Stage 3 [2]: 0 Number (%) of Subjects | Healed lesion PAS Category Shift: Baseline Stage 2 to Last Observed Stage 4 [2]: 0 Number (%) of Subjects | Healed lesion PAS Category Shift: Baseline Stage 3 to Last Observed Stage 0 [2]: 0 Number (%) of Subjects | Healed lesion PAS Category Shift: Baseline Stage 3 to Last Observed Stage 1 [2]: 0 Number (%) of Subjects | Healed lesion PAS Category Shift: Baseline Stage 3 to Last Observed Stage 2 [2]: 0 Number (%) of Subjects | Healed lesion PAS Category Shift: Baseline Stage 3 to Last Observed Stage 3 [2]: 2 (14.3) Number (%) of Subjects | Healed lesion PAS Category Shift: Baseline Stage 3 to Last Observed Stage 4 [2]: 0 Number (%) of Subjects | Healed lesion PAS Category Shift: Baseline Stage 4 to Last Observed Stage 0 [2]: 1 (7.1) Number (%) of Subjects | Healed lesion PAS Category Shift: Baseline Stage 4 to Last Observed Stage 1 [2]: 1 (7.1) Number (%) of Subjects | Healed lesion PAS Category Shift: Baseline Stage 4 to Last Observed Stage 2 [2]: 1 (7.1) Number (%) of Subjects | Healed lesion PAS Category Shift: Baseline Stage 4 to Last Observed Stage 3 [2]: 1 (7.1) Number (%) of Subjects | Healed lesion PAS Category Shift: Baseline Stage 4 to Last Observed Stage 4 [2]: 1 (7.1) Number (%) of Subjects | Healed lesion PAS: Last Observed PAS Result Stage 0 [2]: 2 (14.3) Number (%) of Subjects | Healed lesion PAS: Last Observed PAS Result Stage 1 [2]: 6 (42.9) Number (%) of Subjects | Healed lesion PAS: Last Observed PAS Result Stage 2 [2]: 2 (14.3) Number (%) of Subjects | Healed lesion PAS: Last Observed PAS Result Stage 3 [2]: 3 (21.4) Number (%) of Subjects | Healed lesion PAS: Last Observed PAS Result Stage 4 [2]: 1 (7.1) Number (%) of Subjects
